Legend:
Leukemia cells K562 = test: Intracellular photobleaching by confocal imaging under 405 nm laser; format: cell-based, human; settings: 1 μM sensitizer, 3 hrs incubation, 1-360 seconds
Experimental: Leukemia cells K562 were seeded at 800.000 cells/well in a 12 well tissue culture plate and treated with both free Ce6 (1 μM) and nanophotomedicine (NPM-3) prepared by using the same concentration of the sensitizer. Cells were incubated at 37° C. for 3 hrs before imaging using confocal microscope. Fluorescence imaging was carried out by exciting the sensitizer or nanophotomedicine taken-up by the cells using 405 nm laser. For recording the photobleaching at intracellular regions of the cancer cells, which has significant correlation to therapeutic effects, imaging is carried out after stipulated duration of laser irradiation from 1-360 seconds).

[1] = Photobleaching under laser irradiation, measured with a fluorescence spectrometer; format: physicochemical; settings: total dose 10 J cm^−2, nearly same initial fluorescence intensity
Experimental: Photobleaching characteristics of free Ce6 and nanophotomedicine (NPM-3) having nearly the same initial florescence intensity (that correlate with concentration of the drug) is compared using a fluorescence spectrometer. Laser irradiation of samples of both products was carried out under identical condition of a total dose of 10 J cm^−2. FIG. 4 illustrates the changes in the fluorescence emission characteristics of both the samples. […] In effect, this leads to long term stability of the drug within the construct even after extended duration of therapy.

- photodose at which the drug is inactivated by photobleaching [1]: 2.5 J cm^−2
Substance: chlorin e6 [free Ce6]
- duration of laser irradiation until intracellular fluorescence is bleached out (Leukemia cells K562): 30 s

Source: patent publication US20220296714A1, “TARGETED NANO-PHOTOMEDICINES FOR PHOTODYNAMIC THERAPY OF CANCER” (ERASMUS UNIVERSITY MEDICAL CENTER ROTTERDAM, priority 2009, published 2022)
